Where “and” joins values, the source holds several entries; their conditions need not be identical. Equal entries are not always repeated.
What was measured:
Type in all cases: cell-based, Neomarica gracilis
[1] = test system: N. gracilis rhizome tissue; assay: Effect of plant growth regulators on N. gracilis rhizome tissue growth and tectorigenin content in flask culture
Description: (2) To determine the effect of plant growth regulators (PGR), sprouts from liquid cultured N. gracilis rhizome tissue were removed with a scalpel. The rhizome tissue was inoculated at an inoculum weight of 3% (g F.W./50 ml) in culture medium containing MS basic medium supplemented with PGRs as shown in Table 2. The culture medium was changed every two weeks. The cultured tissue was weighted at each medium change for a total of eight weeks.
N. gracilis rhizome tissue was frozen at −80° C. for 10 hours, dried in a refrigerated vacuum drier (VirTis Freezemobile 12XL) overnight, and grinded. 0.5 g of dried and grinded tissue was suspended in adequate amount of methanol in a 10 ml flask, […] incubated at 60° C. with ultrasonic vibration for 1 hour, and cooled. Methanol was then added to the suspension to a final volume of 10 ml. The suspension was filtered with Whatman No. 1 filter paper. The filtered solution was sealed in brown sample vials and placed in cold room for future experiments.
(§1) The tectorigenin content of the tissue extract was determined by HPLC analysis using a Cosmosil 5 C18-AR-II column (5 μm, 4.6×250 mm), a Lichrospher® 100 RP-18e Guard column (45×4.6 mm, 5 μm, Merck), a Degasser (ERC-3415α) Pump, a Waters 600E Autosampler and Injector (Schambeck SGD GmbH S5200), a Waters TM 486 UV/VIS Detector, and an Integrator (SISC Xunhua Ltd.). The analysis was performed using a methanol:H2O (0.1% Acetic acid) ratio of 55:45, a flowrate of 0.8 ml/min, and a detection wavelength of 265 nm. The tectorigenin peak of the standard appeared at about 13 min appear.
N. gracilis rhizome tissue was inoculated at an inoculum weight of 3% (g F.W./[…]) in culture medium containing MS supplemented with various amount of PGRs (Table 2). The culture medium was changed and the fresh weight of the tissues was measured every two weeks. Significant increases in fresh weight were observed during 6-8 weeks of culture (FIG. 3).

[2] = test system: N. gracilis rhizome tissue; assay: Effect of PGRs on growth and tectorigenin content in TIS culture; settings: for Growth rate: (Final F.W. − Initial F.W.)/Initial F.W.; for F.W. / Tectorigenin: week 4
Description: (2) To determine the effect of PLRs on the grows of N. gracilis and the tectorigenin content influence, ten pieces of liquid cultured N. gracilis rhizome tissue were inoculated in culture media containing MS and PGRs described in samples MS0, TI3, TI4, TI5 and TI6 of Table 3. The culture media were replaced on week 2 and the tissues were harvested on week 4 and analyzed for tectorigenin content.
as §1
To determine the effect of PGRs on the tectorigenin content, ten pieces of liquid cultured N. gracilis rhizome tissue (1.5 g each) were inoculated in culture media containing MS and PGRs described in samples MS0, TI3, TI4, TI5 and TI6 of Table 3. The tissues were harvested on week 4 and analyzed for tectorigenin content.

[3] = test system: N. gracilis rhizome tissue; assay: Tectorigenin content during growth of rhizome tissue in flask culture (weekly for 8 weeks); settings: 0.1 mg/L NAA, week 1, flask culture
Description: (3) To determining the growth curve of N. gracilis rhizome tissue and the tectorigenin content, sprouts from liquid cultured N. gracilis rhizome tissues were removed with a scalpel. The rhizome tissue was inoculated at an inoculum weight (g F.W./50 ml) in culture medium containing the MS basic medium supplemented with 0.1 mg/L NAA or a mixture of 1 mg/L NAA and 1.0 mg/L 2,4-D. The tissues were weighted and analyzed for tectorigenin content every week for eight consecutive weeks.
as §1
Rhizome tissue was inoculated at an inoculum weight of 3% (g F.W./50 ml) in culture medium containing MS basic medium supplemented with 0.1 mg/L NAA or a mixture of 1 mg/L NAA and 1.0 mg/l 2,4-D. The tissues were weighted and analyzed for tectorigenin content every week for eight consecutive weeks.

[4] = test system: N. gracilis rhizome tissue; assay: Effect of inoculum weight and PGRs on tissue growth in TIS culture; settings: 1 mg/L kinetin, inoculum weight 1.5 g, 30 days
Description: (1) To determine the effect of the inoculation weight on tissue growth, the TIS culture chamber was divided into four areas. Liquid cultured N. gracilis rhizome tissue was inoculated at 1.5, 3, 6 and 9 g in each area. The culture medium was an MS medium supplemented with PGR as described in samples T12, T17 and T18 of Table 3. The tissues were cultured under conditions detailed in the Plantima® user's manual and immersed for two minutes every three hours. The cultured tissue was weighted and the medium replaced every ten days.
The TIS culture chamber was divided into four areas and liquid cultured N. gracilis rhizome tissue was inoculated at an inoculum weight of 1.5, 3, 6 and 9 g in each area. The culture medium was MS medium supplemented with PGR as described in samples TI2, TI7 and TI8 of Table 3. The cultured tissue was weighted every ten days. […] All other inoculum weights/PGR combinations led to slower growth (FIG. 7).

[5] = test system: N. gracilis rhizome tissue; assay: Effect of ancymidol on sprout formation and tectorigenin content of cultured rhizome tissue
Description: (§2) (4) To determine ancymidol's effect on sprout formation and tectorigenin content, liquid cultured N. gracilis rhizome tissue was inoculated at an inoculum weight of 3% (g F.W./100 ml) to a subculture medium containing MS, 0.5 mg/L BA, 0.1 mg/L 2,4-D and 0.84 mg/L NAA. At day 7 and 14 of the culture, sterilely filtered (0.2 um) ancymidol was added to the culture medium to a final concentration of 0.5, 1.0, or 2.0 mg/L. The growth of the tissue was monitored and the tectorigenin content analyzed.
as §1
as §2, with “Liquid” for “(4) To determine ancymidol's effect on sprout formation and tectorigenin content, liquid”

[6] = IAA 0.1 mg/L, Kinetin 0, 8 weeks flask culture
[7] = IAA 0.5 mg/L, Kinetin 0, 8 weeks flask culture
[8] = IAA 1 mg/L, Kinetin 0, 8 weeks flask culture
[9] = NAA 0.1 mg/l, 2,4-D 0, 8 weeks flask culture
[10] = NAA 0.5 mg/l, 2,4-D 0, 8 weeks flask culture
[11] = NAA 1.0 mg/l, 2,4-D 0, 8 weeks flask culture
[12] = NAA 2.0 mg/l, 2,4-D 0, 8 weeks flask culture
[13] = 2,4-D 0.1 mg/l, NAA 0, 8 weeks flask culture
[14] = 2,4-D 1.0 mg/l, NAA 0, 8 weeks flask culture

O=C(O)Cc1c[nH]c2ccccc12 [IAA, indole-3-acetic acid]
Dry weight [1, 6]: 1.26 ± 0.22 b g
Tectorigenin [1, 6]: 11.8 ± 8.4 b mg/kg D.W.
Dry weight [1, 7]: 1.02 ± 0.11 bc g
Tectorigenin [1, 7]: 37.6±4.9 mg/kg D.W. and 37.6 ± 4.9 a mg/kg D.W.
Dry weight [1, 8]: 1.70 ± 0.08 a g
Tectorigenin [1, 8]: 29.0 ± 0.29 c mg/kg D.W.

O=C(O)Cc1cccc2ccccc12 [NAA, α-naphthaleneacetic acid]
Growth rate ([2]; NAA 0.1 mg/l): 1.71 ± 0.14
F.W. ([2]; NAA 0.1 mg/l): 40.65 ± 2.09 g
Tectorigenin ([2]; NAA 0.1 mg/l): 38 ± 0.57 mg/kg D.W.
Growth rate ([2]; NAA 0.5 mg/l): 1.10 ± 0.21
F.W. ([2]; NAA 0.5 mg/l): 31.47 ± 3.12 g
Tectorigenin ([2]; NAA 0.5 mg/l): 33 ± 0.38 mg/kg D.W.
Dry weight [1, 9]: 1.39 ± 0.32 a g
Tectorigenin [1, 9]: 55.5±0.67 mg/kg D.W. and 55.5 ± 0.67 ab mg/kg D.W.
Dry weight [1, 10]: 1.03 ± 0.31 bc g
Tectorigenin [1, 10]: 59.9±0.23 mg/kg D.W. and 58.9±0.23 mg/kg D.W. and 58.9 ± 0.23 ab mg/kg D.W.
Dry weight [1, 11]: 1.05 ± 0.20 bc g
Tectorigenin [1, 11]: 49.0 ± 0.81 bc mg/kg D.W.
Dry weight [1, 12]: 0.75 ± 0.02 cd g
Tectorigenin [1, 12]: 9.4 ± 0.22 e mg/kg D.W.
tectorigenin content (highest, during week 1) [3]: 56±2.82 mg/kg D.W.

c1coc(CNc2ncnc3[nH]cnc23)c1 [Kinetin, kinetin]
Growth rate ([2]; Kinetin 1.0 mg/l): 2.07 ± 0.15
F.W. ([2]; Kinetin 1.0 mg/l): 46.12 ± 2.18 g
Tectorigenin ([2]; Kinetin 1.0 mg/l): 10 ± 0.15 mg/kg D.W.
change of tectorigenin content (in words) ([1]; flask culture, 8 weeks): did not result in any increase in the tectorigenin content
fresh weight [4]: 6.76 ± 0.33 g
fresh weight as fold of the inoculum weight [4]: 4.5 fold

O=C(O)COc1ccc(Cl)cc1Cl [2,4-D, 2,4-dichlorophenoxyacetic acid]
Dry weight [1, 13]: 0.92 ± 0.15 bc g
Tectorigenin [1, 13]: 38.9 ± 1.17 cd mg/kg D.W.
Dry weight [1, 14]: 1.17 ± 0.21 ab g
Tectorigenin [1, 14]: 36.7 ± 0.33 cd mg/kg D.W.

COc1ccc(C(O)(c2cncnc2)C2CC2)cc1 (stereo not shown) [Ancymidol, ancymidol]
effect on tectorigenin content (in words) ([5]; 0.5 or 2.0 mg/L added on day 14): reduced tectorigenin content
Tectorigenin ([5]; Ancymidol 0.5 mg/L added day 7, 3 weeks of culture): 28.31 ± 0.11 b mg/kg D.W.
Tectorigenin ([5]; Ancymidol 0.5 mg/L added day 14, 3 weeks of culture): 18.59 ± 0.07 c mg/kg D.W.
Tectorigenin ([5]; Ancymidol 1.0 mg/L added day 7, 3 weeks of culture): 27.74 ± 0.08 b mg/kg D.W.
Tectorigenin ([5]; Ancymidol 1.0 mg/L added day 14, 3 weeks of culture): 30.81 ± 0.35 a mg/kg D.W.
Tectorigenin ([5]; Ancymidol 2.0 mg/L added day 7, 3 weeks of culture): 35.65 ± 0.18 a mg/kg D.W.
Tectorigenin ([5]; Ancymidol 2.0 mg/L added day 14, 3 weeks of culture): 13.36 ± 0.13 d mg/kg D.W.
effect on tectorigenin content (in words) ([5]; added on day 7): did not affect the tectorigenin content
sprout formation (morphology) ([5]; added on day 7): significant reduction of sprout formation
